Assay [1] concerns the target T1, A disintegrin and metalloproteinase with thrombospondin motifs 4 (Homo sapiens) (UniProt O75173).
T1 sequence (whole entry): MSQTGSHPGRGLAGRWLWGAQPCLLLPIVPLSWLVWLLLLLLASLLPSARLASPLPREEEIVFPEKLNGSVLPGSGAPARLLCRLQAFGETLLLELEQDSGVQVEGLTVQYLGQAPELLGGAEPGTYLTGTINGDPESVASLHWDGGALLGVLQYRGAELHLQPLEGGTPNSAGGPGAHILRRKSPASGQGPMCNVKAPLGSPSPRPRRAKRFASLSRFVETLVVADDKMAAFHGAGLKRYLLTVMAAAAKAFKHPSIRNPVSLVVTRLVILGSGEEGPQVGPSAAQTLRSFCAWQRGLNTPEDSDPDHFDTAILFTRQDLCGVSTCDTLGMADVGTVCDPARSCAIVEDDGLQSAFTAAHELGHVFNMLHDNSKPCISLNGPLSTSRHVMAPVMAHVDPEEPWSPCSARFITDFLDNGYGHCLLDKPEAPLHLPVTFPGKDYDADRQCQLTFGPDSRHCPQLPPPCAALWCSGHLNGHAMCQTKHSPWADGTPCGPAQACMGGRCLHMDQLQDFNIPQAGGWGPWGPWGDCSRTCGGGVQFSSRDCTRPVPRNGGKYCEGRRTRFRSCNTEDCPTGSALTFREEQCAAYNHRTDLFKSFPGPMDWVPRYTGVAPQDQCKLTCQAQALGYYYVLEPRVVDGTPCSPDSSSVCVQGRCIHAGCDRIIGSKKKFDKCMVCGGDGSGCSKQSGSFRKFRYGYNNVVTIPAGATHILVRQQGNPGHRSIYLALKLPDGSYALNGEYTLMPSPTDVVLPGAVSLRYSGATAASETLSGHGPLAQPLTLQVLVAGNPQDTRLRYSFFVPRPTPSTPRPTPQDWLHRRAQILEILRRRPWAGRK
The assay is described as follows: Inhibition of human recombinant ADAMTS4 at 10 uM by fluorimetric assay.

Assay [2] addresses T1, A disintegrin and metalloproteinase with thrombospondin motifs 4 (Homo sapiens). The assay is described as follows: Inhibition of human recombinant ADAMTS4 at 1 uM by fluorimetric assay.
The nature of assay [3]: Inhibition of aggrecanase.
Assay [4] concerns the target T2, A disintegrin and metalloproteinase with thrombospondin motifs 5 (Homo sapiens, UniProt Q9UNA0).
T2 sequence (Q9UNA0 whole entry): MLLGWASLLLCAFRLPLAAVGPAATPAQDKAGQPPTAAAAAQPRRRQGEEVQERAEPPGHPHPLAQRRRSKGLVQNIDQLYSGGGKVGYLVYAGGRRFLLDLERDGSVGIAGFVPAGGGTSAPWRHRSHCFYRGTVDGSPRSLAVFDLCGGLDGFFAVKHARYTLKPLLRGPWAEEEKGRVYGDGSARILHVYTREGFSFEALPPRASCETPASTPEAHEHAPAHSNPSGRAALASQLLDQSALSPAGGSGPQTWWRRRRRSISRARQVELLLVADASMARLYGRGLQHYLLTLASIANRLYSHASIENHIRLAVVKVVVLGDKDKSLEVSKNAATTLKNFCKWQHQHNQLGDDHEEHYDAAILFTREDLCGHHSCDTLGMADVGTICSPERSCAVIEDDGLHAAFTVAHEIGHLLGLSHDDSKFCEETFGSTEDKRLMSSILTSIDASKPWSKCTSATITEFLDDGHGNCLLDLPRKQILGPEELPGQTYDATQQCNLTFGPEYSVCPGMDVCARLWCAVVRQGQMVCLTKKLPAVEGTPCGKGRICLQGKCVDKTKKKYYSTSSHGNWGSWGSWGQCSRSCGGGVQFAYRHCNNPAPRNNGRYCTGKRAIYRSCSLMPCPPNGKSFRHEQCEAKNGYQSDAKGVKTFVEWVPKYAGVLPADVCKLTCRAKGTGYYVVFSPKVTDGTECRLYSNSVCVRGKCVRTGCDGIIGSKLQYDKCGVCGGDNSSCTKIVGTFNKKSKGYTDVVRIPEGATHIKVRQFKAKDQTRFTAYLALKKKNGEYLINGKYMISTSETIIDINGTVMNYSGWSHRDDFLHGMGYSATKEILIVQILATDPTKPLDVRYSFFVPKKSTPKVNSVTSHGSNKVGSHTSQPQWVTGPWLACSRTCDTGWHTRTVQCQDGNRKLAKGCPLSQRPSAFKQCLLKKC
Briefly: Inhibition of human recombinant ADAMTS5 by fluorimetric assay.

Assay [5] deals with T1, A disintegrin and metalloproteinase with thrombospondin motifs 4 (Homo sapiens). The assay is described as follows: (§1) Inhibition of human recombinant ADAMTS4 by fluorimetric assay.
The target in assay [6] is T3, A disintegrin and metalloproteinase with thrombospondin motifs 4 (Homo sapiens, UniProt O75173).
T3 sequence (O75173 whole entry): T1 sequence (whole entry)
Described as §1.

On to `COc1ccc(Cc2nnc([C@H](CCC(=O)O)NC(=O)c3ccc(-c4ccccc4)cc3)o2)cc1`, for which the inhibition in assay [1] was found to be 21%; in assay [2], 5%.

`O=C(C[C@@H](Cc1ccc(-c2ccc3c(c2)OCO3)cc1)C(=O)N[C@@H]1c2ccccc2C[C@@H]1O)NO` showed an IC50 in assay [3] of 1.5 nM.

`COc1cc(CCc2nnc([C@H](CCC(=O)O)NC(=O)c3ccc(-c4ccccc4)cc3)o2)cc(OC)c1OC`: the IC50 was 4.3 µM in assay [4] and 3.3 µM in assay [6]. Further, the results for the inhibition in assay [1], in assay [2] and in assay [5] were 74%, 35% and “Dose-dependent effect”, respectively.

On to `COc1ccc(CCc2nnc([C@H](CCC(=O)O)NC(=O)c3ccc(-c4ccccc4)cc3)o2)cc1`, for which the IC50 in assay [4] came out at 24.3 µM; in assay [6], 4.9 µM. For the same compound, the results for the inhibition in assay [1], in assay [2] and in assay [5] were 66%, 35% and “Dose-dependent effect”, respectively.

With `CC(C)(c1ccccc1)c1nnc([C@H](CCC(=O)O)NC(=O)c2ccc(-c3ccccc3)cc2)o1`, the inhibition in assay [1] was 5%; in assay [2], -5%.

With `Cc1ccc(CCc2nnc([C@H](CCC(=O)O)NC(=O)c3ccc(-c4ccccc4)cc3)o2)cc1`, the figures for the inhibition in assay [1] and in assay [2] were 56% and 27%, respectively.

For `CC(C)(Cc1nnc([C@H](CCC(=O)O)NC(=O)c2ccc(-c3ccccc3)cc2)o1)c1ccccc1`, the inhibition in assay [1] was 45%; in assay [2], 19%.

On to `O=C(O)CC[C@H](NC(=O)c1ccc(-c2ccncc2)cc1)c1nnc(CCc2ccccc2)o1`, for which the inhibition in assay [1] is 18%; in assay [2] it was 8%.

Regarding `COc1cc(Cc2nnc([C@H](CCC(=O)O)NC(=O)c3ccc(-c4ccccc4)cc3)o2)cc(OC)c1OC`, the IC50 in assay [4] was determined as 0.8 µM; in assay [6], 1.2 µM. The results for the inhibition in assay [1], in assay [2] and in assay [5] were 86%, 47% and “Dose-dependent effect”, respectively.

As for `CC(C)(Cc1ccccc1)c1nnc([C@H](CCC(=O)O)NC(=O)c2ccc(-c3ccccc3)cc2)o1`, the inhibition in assay [1] came to 47%; in assay [2], 23%.

Turning to `O=C(O)CC[C@H](NC(=O)c1ccc(-c2ccccc2)cc1)c1nnc(CCc2ccc(O)cc2)o1`, the inhibition in assay [1] was 51%; in assay [2], 22%.

Consider `O=C(O)CC[C@H](NC(=O)c1ccc(-c2ccccc2)cc1)c1nnc(C2(c3ccccc3)CC2)o1`, for which the inhibition in assay [1] is 20%; in assay [2], 5%.

Turning to `O=C(O)CC[C@H](NC(=O)c1ccc(-c2ccccc2)cc1)c1nnc(CCc2ccccc2)o1`, the results for the half-maximal inhibitory concentration (IC50) in assay [4] and in assay [6] were 57.3 µM and 9.7 µM, respectively. The inhibition in assay [1] is 59%; in assay [2], 30%; in assay [5], “Dose-dependent effect”.

As to `O=C(O)CC[C@H](NC(=O)c1ccc(-c2ccccc2)cc1)c1nnc(Cc2ccccc2)o1`, the inhibition in assay [1] is 26%; in assay [2], 17%.

With `O=C(O)CC[C@H](NC(=O)c1ccc(-c2cccnc2)cc1)c1nnc(CCc2ccccc2)o1`, the inhibition was 39% in assay [1] and 12% in assay [2].

For orientation: inhibition means the drop in the measured response relative to a control, in per cent. The IC50 is the concentration that gives 50% inhibition.
